For the data set, the system named is HepG2, HMEC-1, A549, Caco-2, 3T3. Description: Multiparameter automated HCS cytotoxicity test "Cell health assay". It is filed as cell-based. Also noted: scale not given here. Conditions: for cumulative cytotoxicity index: points over 5 cell lines; for cumulative cytotoxicity index, Total: sum over the five concentrations. As for the experimental part: Thanks to the use of three fluorescent dyes (MitoTracker - Invitrogen, YO-[…], Hoechst 33 342 - Sigma), assessment of the impact of the studied extracts on the size, and morphology of the nucleus, cytoplasmic membrane integrity, and mitochondrial activity was made. Tests were performed on 96-well plates using 5 cell lines (HepG2, HMEC-1, A549, Caco-2, 3T3). The measurements were taken using automatic pipetting station JANUS by Perkin Elmer. The formulation was examined at five concentrations, measurements were taken in duplicates in 5 independent series. Based on the raw experimental data, statistical analysis of significance of observed differences in average values for three selected measurement parameters, measuring the fluorescence intensity, and dyed surface in cells, using fluorescent dyes, was made. The selected parameters illustrate: • 1. Surface of the cell nucleus (Hoechst (Sigma) • 2. Accumulation of YO-[…] dye (Invitrogen), indicating cytoplasmic membrane damage • 3. Mitochondrial potential (MitoTracker - Invitrogen) Then, the statistically significant differences for each tested concentration of each substance, which indicate morphological, and functional changes in cells, showing cytotoxic activity, were assigned with point values as shown in the diagram of assessment of the observed effects below. Differences subject to the scoring: • 1. Decrease, or increase in nucleus surface • 2. Increase in the accumulation of YO-[…] • 3. Decrease in the mitochondrial potential The following Table 13 illustrates the assigned point values given to the studied formulations in "Cell health assay" test. Table 13. Point values adopted in "Cell health assay" test. [table]

Structures are written as SMILES.

As to `O=c1c(O)c(-c2ccc(O)cc2)oc2cc(O)cc(O)c12` [Kaempferol], the “cumulative cytotoxicity index, Total” value was 27.0. For the setting “5 µg/ml”, this compound showed a cumulative cytotoxicity index of 2.6. The cumulative cytotoxicity index (10 µg/ml) came to 1.4. For the same compound, the cumulative cytotoxicity index (30 µg/ml) is recorded as 8.4. The cumulative cytotoxicity index (40 µg/ml) is 8.4. The cumulative cytotoxicity index (50 µg/ml) was 6.2.

Turning to `C[C@@H]1O[C@@H](O[C@H]2[C@H](Oc3cc(O)c4c(c3)O[C@H](c3ccc(O)cc3)CC4=O)O[C@H](CO)[C@@H](O)[C@@H]2O)[C@H](O)[C@H](O)[C@H]1O` [Naringin], the “cumulative cytotoxicity index, Total” value is recorded as 1.8. The compound further displayed a cumulative cytotoxicity index (5 µg/ml) of 0.0. The compound further gave a cumulative cytotoxicity index (10 µg/ml) of 0.0. In addition, the cumulative cytotoxicity index (30 µg/ml) is 0.2. Moreover, the cumulative cytotoxicity index (40 µg/ml) was 1.4. Moreover, the cumulative cytotoxicity index (50 µg/ml) was found to be 0.2.

The values above are taken from EP2741758B1, “POLYPHENOLIC FORMULATION, ITS PREPARATION AND USE” (Uniwersytet Medyczny W Lodzi, priority 2011, dated 2013).
